Assay results from patent US20100286076A1, “ECTOPARASITICIDAL METHODS AND FORMULATIONS” (priority 2009, published 2010).
Read-outs that look alike come from different tables or passages of the source.

How the values were obtained:
[1] = tested on: House Fly; test: Adult House Fly Assay (AhsF), feeding on compound-soaked dental wicks, 24 h mortality; set-up: species or system Musca domestica; conditions: 24 h, read-out: Potency (24 h EC50 μM)
Procedure: Adult Stable or House Fly Assay (ASF, AhsF). This assay is conducted essentially as described in White, W. H., S. M. Bauer, X. Zhao et al., Comparison of in vitro and in vivo ectoparasiticide activity of an experimental benzimidazole-carbamate with permethrin and amitraz, J. Med. Entomol. 42, 207-211 (2005); and White, W. H., C. M. McCoy, J. A. Meyer et al., Knockdown and mortality comparisons among spinosad-, imidacloprid-, and methomyl-containing baits against susceptible Musca domestica (Diptera: Muscidae) under laboratory conditions, J. Econ. Entomol. 100, 155-163 (2007).
Test material is formulated in DMSO at 10 mM. Doubling dilutions in like solvent are made to yield 10 testing levels. Materials are diluted in either bovine serum (stable flies) or 5% glucose solution (house flies) to obtain desired exposure concentrations from 200-0.39 μM. Approximately 3 ml of diluted test material is placed into a test tube (n=3 per test level) and a dental wick is used to absorb fluid. One dental wick is placed into a small weigh boat inside of a 100 mm Petri dish. Approximately 10 mixed-sex adult flies are anesthetized using carbon dioxide and counted into each dish. Dishes are incubated at 27° C. and 50-70% relative humidity. Flies recover from anesthesia and feed on compound-soaked dental wicks. After 24 h, live/dead flies are enumerated. Nonlinear regression is used to model dose-mortality relationship and obtain relative potency (LD50) data compared to contemporaneous controls (solvent-only or permethrin).

[2] = tested on: adult cat flea, Ctenocephalides felis; conditions: dogs, historical data, not contemporaneous controls, cited from earlier work

Row | Compound | EC50 ([1]; Musca domestica) | geometric mean percent flea reduction, Day 7 ([2]; Day 7) | geometric mean percent flea reduction, Day 14 ([2]; Day 14) | geometric mean percent flea reduction, Day 21 ([2]; Day 21) | geometric mean percent flea reduction, Day 30 ([2]; Day 30) | geometric mean percent flea reduction, Day 37 ([2]; Day 37) | geometric mean percent flea reduction, Knockdown ([2]; Knockdown) | EC50 ([1]; adult house flies, 5% glucose solution)
1 | N#Cc1nn(-c2c(Cl)cc(C(F)(F)F)cc2Cl)c(N)c1[S+]([O-])C(F)(F)F (centres unmarked) [Fipronil, reference compound] | 0.97 µM |  |  |  |  |  |  | 
2 | Spinosad |  | 100% | 99.6% | 100% | 97.8% | 91.1% | 100% | 12 µM
